Four compounds from PMC12027702, “Evaluation of Tyrosinase Inhibitory Activity of Carbathioamidopyrazoles and Their Potential Application in Cosmetic Products and Melanoma Treatment” (International Journal of Molecular Sciences, 2025) can be followed below.

The target of this experiment is T1, mushroom tyrosinase.
T1 construct: gene PPO3; PDB 2Y9X is only the docking model
Put plainly: Dixon plot, L-DOPA oxidation, absorbance at […] nm. The experiment is classed as biochemical. The settings on record: L-DOPA substrate, phosphate buffer pH 6.88, 20 °C, 20 min preincubation, 10% DMSO; competitive.
Compound `Cc1cc(C)n(C(N)=S)n1` [compound 1, 1-[amino(thioxo)methyl]-3,5-dimethyl-1Hpyrazole] had a Ki of 14.6 µM.

Compound `CCc1cc(CC)n(C(N)=S)n1` [compound 2, 1-[amino(thioxo)methyl]-3,5-diethyl-1Hpyrazole] yielded a Ki of 64.4 µM.

The compound `NC(=S)n1nc(-c2ccccc2)cc1O` [compound 3, 1-[amino(thioxo)methyl]-5-hydroxy-3-phenyl-1Hpyrazole] displayed a Ki of 118 µM.

For the compound `Cc1cc(O)n(C(N)=S)n1` [compound 4, 1-[amino(thioxo)methyl]-5-hydroxy-3-methyl-1H-pyrazole], affinity was put at a Ki of 7.88 µM.
